Data as given in US5571816A, “Pyrimidines” (Hoechst Aktiengesellschaft, priority 1992, dated 1996).
Where a name gives a salt, the structure may show the parent alone. Read-outs that look alike come from different tables or passages of the source.

How the values were obtained:
[1] = test system: LDL receptor mRNA; experiment: Stimulation of LDL receptor mRNA expression in HepG2 cells (Northern blot); assay type: cell-based; conditions: Homo sapiens; HepG2, 2 × 10^-6 M, 16 h; control = 100%; ratio to β-actin mRNA
Description: 1a. In the human hepatocytoma cell line HepG2, which is recognized everywhere as model, the LDL receptor mRNA levels are increased by the compounds of the formula I (Table I).
(§1) The mRNA was prepared by the method described by Chomczynski, P. and Sacchi, N., in Anal. Biochem. 162, 156-159 (1987). In the case of organs (such as, for example, liver), the deep-frozen tissue was previously homogenized on dry ice in a mortar, and the mRNA was further concentrated by means of oligo dT by standard methods (cf. Sambrook, J., Fritsch, E. F. and Maniatis, T., Molecular Cloning, second edition, Cold Spring Harbor (1989); this collection of methods also includes descriptions of all the other relevant standard processes of molecular biology used here). 5 to […] of the dissolved mRNA obtained in this way were denatured by standard processes and fractionated on 1% horizontal agarose gels. The mRNA was transferred by capillary blotting to Hybond N membranes (Amersham). Used as specific hybridization probe was a partial LDL receptor cDNA clone and as internal standard was a plasmid which contained a β-actin gene. Both plasmids were labeled using a random primer kit from Amersham to a specific activity of 5×10^9 cpm/μg. Prehybridization, hybridization and washing of the filters took place by standard processes. The filters were subsequently exposed on Cronex 4 films (Dupont) in the presence of an intensifying screen at -70° C. overnight or for up to 14 days, and the hybridization signals were quantified from the intensity of blackening of the film using a commercially available laser densitometer. Subsequently, the quotient of the intensity of the LDL receptor band and of the actin band was determined as internal standard to correct for variations in yield.
The HepG2 cells were incubated in RPMI 1640 standard medium with fetal calf serum (final concentration 10%). Serum-free RPMI medium was used as induction control. Subsequently, the complete mRNA was prepared and, by means of the Northern blot technique, the relevant LDL receptor mRNA and β-actin mRNA levels were determined. The quotient of the LDL receptor mRNA signal and of the β-actin mRNA signal of the control (without added substance) was set equal to 100%, and the stimulation above this of the LDL receptor mRNA levels achieved under the influence of the compounds was expressed as percentage of the control.

[2] = test system: LDL receptor mRNA; experiment: Stimulation of LDL receptor mRNA expression in rat livers (Northern blot); assay type: in vivo; conditions: rat liver, 30 mg/kg, 6 hours after administration; untreated control = 100%
Description: 1b. The LDL receptor mRNA levels are also raised in rat livers by compounds of the formula I within a few hours (Table II).
as §1
Liver tissue was removed and shock-frozen in liquid nitrogen.
Subsequently, the mRNA was isolated as described and, by means of the Northern blot technique, the relative LDL receptor mRNA levels were determined. The mRNA level of untreated control animals was set equal to 100%, and the stimulation of the LDL receptor mRNA was calculated as a percentage of the […]

[3] = test system: serum lipoproteins; experiment: Effect on serum lipoproteins of normolipemic male rats in a subchronic experiment; assay type: in vivo; conditions: Rattus norvegicus, po, by stomach tube, 7 administrations; for change in vivo at 1 mg/kg: 1 mg/kg/day; for change in vivo at 3 mg/kg: 3 mg/kg/day; for change in vivo at 10 mg/kg: 10 mg/kg/day; for change in vivo at 30 mg/kg: 30 mg/kg/day
Description: 3. In vivo, the increased LDL receptor activity in experimental animals is reflected by reduction in the lipoprotein fractions which can be metabolized by the LDL receptor (apoB/E receptor), i.e. a reduction in the LDL and VLDL levels is observed. The following test was carried out:
Effect on serum lipoproteins of normolipemic male rats in a subchronic experiment
Groups of in each case 10 male rats of the HOE: WISKf (SPF 71) strain with an initial weight above 180 g received once a day (in the morning) the test product or the comparison product in 1% aqueous ®Tylose MH 300 solution by stomach tube (0.5 ml/100 g of body weight); the control group in each case received only the vehicle. The last (7th) administration took place 24 hours before removal of blood and sacrifice. There was free access to food and water during the test. The food was withdrawn 24 hours before the removal of blood.
The serum from all 10 rats in a group was pooled for the analysis of the serum lipoproteins. The serum lipoproteins were separated with a preparative ultracentrifuge (KONTRON TGA 65, Rotor BECKMAN 50.4 Ti).
The following conditions specified by Koga, S., Horwitz, D. L., and Scanu, A. M., Journal of Lipid Research 10, 577 (1969) and Havel, R. J., Eder, H. A., and Bragdon, H. H., J. Clin. Invest. 34, 1345 (1955) were used to separate VLDL and LDL: 1. VLDL: Density<1.006, 40,000 rpm for 16 hours 2. LDL: Density 1.006-1.04, 40,000 rmp for 16 hours
Test kits from BOEHRINGER/Mannheim were used for the enzymatic determination of cholesterol and triglycerides in the separated lipoprotein fractions (cf. Siedel, J., Schlumberger, H., Klose, S., Ziegenhorn, J. and Wahlefeld, A. W., J. Clin. Chem. Clin. Biochem. 19, 838 (1981) and Wahlefeld, A. W., in: H. O. Bergmeier: Methoden der enzymatischen Analyse (Methods of Enzymatic Analysis), 2nd edition, Volume II, Verlag Chemie 1974, page 1878). The proteins were determined by the method of Lowry (Lowry, O. H., Roseborough, N. H., Farr, A. L. and Randell, R. J., J. Biol. Chem. 193, 265 (1951)).
Clofibrate was used as comparison product.

[4] = Solubility in water of salts (and free bases); assay type: physicochemical; conditions: Table 2, salts of compounds I, temp. by No. [°C]: 1 25.5, 2 23.0, 3 22.4, 4 22.4, 5 22.0, 6 25.0, 7 25.5, 8 25.5, 9 25.5, 10 23.5, 11 23.5, 12 25.0, 13 24.0, 14 23.0, 15 22.0, 16 24.5, 17 22.5, 18 22.0; for solubility: water, read-out: Solubility in water, Concentration in % by wt.
[5] = read-out: Serum LDL cholesterol, % change from control at end of treatment
[6] = read-out: Serum LDL protein, % change from control at end of treatment
[7] = read-out: Serum VLDL cholesterol, % change from control at end of treatment
[8] = read-out: Serum VLDL protein, % change from control at end of treatment
[9] = read-out: Serum VLDL triglycerides, % change from control at end of treatment

SMILES: CCN(C(=O)c1cnc(N2CC(C)(C)NC2=O)nc1N)c1cccc(C(F)(F)F)c1 [Example 2, 4-amino-2-(4,4-dimethyl-2-oxo-1-imidazolidinyl)pyrimidine-5-carboxylic acid N-ethyl-N-(3-trifluoromethylphenyl)amide hydrochloride]
- activity at 2 µM [1]: 175%
- LDL receptor mRNA [2]: 300%
- change in vivo at 1 mg/kg [3, 5]: -28%
- change in vivo at 1 mg/kg [3, 6]: -44%
- change in vivo at 1 mg/kg [3, 7]: -22%
- change in vivo at 3 mg/kg [3, 5]: 40%
- change in vivo at 3 mg/kg [3, 6]: -28%
- change in vivo at 3 mg/kg [3, 7]: -30%
- change in vivo at 3 mg/kg [3, 8]: -7%
- change in vivo at 3 mg/kg [3, 9]: 40%
- change in vivo at 10 mg/kg [3, 5]: -32%
- change in vivo at 10 mg/kg [3, 6]: -28%
- change in vivo at 10 mg/kg [3, 7]: -41%
- change in vivo at 10 mg/kg [3, 8]: -28%
- change in vivo at 10 mg/kg [3, 9]: -26%
- change in vivo at 30 mg/kg [3, 5]: -75%
- change in vivo at 30 mg/kg [3, 6]: -73%
- change in vivo at 30 mg/kg [3, 7]: -96%
- change in vivo at 30 mg/kg [3, 8]: 40%
- change in vivo at 30 mg/kg [3, 9]: -81%

SMILES: CC1(C)CN(c2ncc(C(=O)N(CC3CC3)c3cccc(C(F)(F)F)c3)c(N)n2)C(=O)N1 [Example 12, 4-amino-2-(4,4-dimethyl-2-oxo-1-imidazolidinyl)pyrimidine-5-carboxylic acid N-cyclopropylmethyl-N-(3-trifluoromethylphenyl)amide hydrochloride]
- activity at 2 µM [1]: 170%
- change in vivo at 3 mg/kg [3, 5]: -26%
- change in vivo at 3 mg/kg [3, 6]: -5%
- change in vivo at 3 mg/kg [3, 7]: -6%
- change in vivo at 3 mg/kg [3, 8]: -8%
- change in vivo at 3 mg/kg [3, 9]: -4%
- change in vivo at 10 mg/kg [3, 5]: 46%
- change in vivo at 10 mg/kg [3, 6]: -18%
- change in vivo at 10 mg/kg [3, 7]: -63%
- change in vivo at 10 mg/kg [3, 8]: -34%
- change in vivo at 10 mg/kg [3, 9]: -51%
- change in vivo at 30 mg/kg [3, 5]: -66%
- change in vivo at 30 mg/kg [3, 6]: -30%
- change in vivo at 30 mg/kg [3, 7]: -80%
- change in vivo at 30 mg/kg [3, 8]: -51%
- change in vivo at 30 mg/kg [3, 9]: -29%

SMILES: CN(C(=O)c1cnc(N2CC(C)(C)NC2=O)nc1N)c1cc(C(F)(F)F)ccc1F [Example 28]
- 1 part by mass dissolves in ... parts by H2O [4]: 72.7 parts by H2 O
- solubility [4]: 13.6 mg/mL
- change in vivo at 3 mg/kg [3, 5]: 1%
- change in vivo at 3 mg/kg [3, 6]: -26%
- change in vivo at 3 mg/kg [3, 7]: -2%
- change in vivo at 3 mg/kg [3, 8]: -29%
- change in vivo at 10 mg/kg [3, 5]: -33%
- change in vivo at 10 mg/kg [3, 6]: -68%
- change in vivo at 10 mg/kg [3, 7]: -74%
- change in vivo at 10 mg/kg [3, 8]: 41%
- change in vivo at 10 mg/kg [3, 9]: 46%
- change in vivo at 30 mg/kg [3, 5]: -75%
- change in vivo at 30 mg/kg [3, 6]: -62%
- change in vivo at 30 mg/kg [3, 7]: -79%
- change in vivo at 30 mg/kg [3, 8]: -49%
- change in vivo at 30 mg/kg [3, 9]: -56%

SMILES: CC(C)N(C(=O)c1cnc(N2CC(C)(C)NC2=O)nc1N)c1ccc(F)c(C(F)(F)F)c1 [Example 35]
- 1 part by mass dissolves in ... parts by H2O [4]: 28.6 parts by H2 O
- solubility [4]: 33.8 mg/mL
- change in vivo at 30 mg/kg [3, 5]: 46%
- change in vivo at 30 mg/kg [3, 6]: -35%
- change in vivo at 30 mg/kg [3, 7]: -79%
- change in vivo at 30 mg/kg [3, 8]: -69%
- change in vivo at 30 mg/kg [3, 9]: -55%

SMILES: CCN(C(=O)c1cnc(N2CC(C)(C)NC2=O)nc1N)c1cc(C(F)(F)F)ccc1F [Example 32]
- solubility [4]: 10.1 mg/mL
- change in vivo at 10 mg/kg [3, 5]: -54%
- change in vivo at 10 mg/kg [3, 6]: -36%
- change in vivo at 10 mg/kg [3, 7]: -85%
- change in vivo at 10 mg/kg [3, 8]: -73%
- change in vivo at 10 mg/kg [3, 9]: -68%
- change in vivo at 30 mg/kg [3, 5]: -76%
- change in vivo at 30 mg/kg [3, 6]: -49%
- change in vivo at 30 mg/kg [3, 7]: -100%
- change in vivo at 30 mg/kg [3, 8]: -39%
- change in vivo at 30 mg/kg [3, 9]: -80%

SMILES: CCC(C)N(C(=O)c1cnc(N2CC(C)(C)NC2=O)nc1N)c1cccc(C(F)(F)F)c1 (stereo not shown) [Example 8, 4-amino-2-(4,4-dimethyl-2-oxo-1-imidazolidinyl)-pyrimidine-5-carboxylic acid N-sec.-butyl-N-(3-trifluoromethylphenyl)amide hydrochloride]
- activity at 2 µM [1]: 237%
- change in vivo at 30 mg/kg [3, 5]: -30%
- change in vivo at 30 mg/kg [3, 6]: -18%
- change in vivo at 30 mg/kg [3, 7]: -39%
- change in vivo at 30 mg/kg [3, 8]: -26%
- change in vivo at 30 mg/kg [3, 9]: -37%
